The record followed here is patent US20020028945A1, “Heterocyclo substituted hydroxamic acid derivatives as cyclooxygenase-2 and 5-lipoxygenase inhibitors” (priority 1996, published 2002).

A value given as a limit tells only on which side of the number the result lay.

One data set addresses T1, COX-2 (UniProt P35354).
T1 sequence (P35354 1-604): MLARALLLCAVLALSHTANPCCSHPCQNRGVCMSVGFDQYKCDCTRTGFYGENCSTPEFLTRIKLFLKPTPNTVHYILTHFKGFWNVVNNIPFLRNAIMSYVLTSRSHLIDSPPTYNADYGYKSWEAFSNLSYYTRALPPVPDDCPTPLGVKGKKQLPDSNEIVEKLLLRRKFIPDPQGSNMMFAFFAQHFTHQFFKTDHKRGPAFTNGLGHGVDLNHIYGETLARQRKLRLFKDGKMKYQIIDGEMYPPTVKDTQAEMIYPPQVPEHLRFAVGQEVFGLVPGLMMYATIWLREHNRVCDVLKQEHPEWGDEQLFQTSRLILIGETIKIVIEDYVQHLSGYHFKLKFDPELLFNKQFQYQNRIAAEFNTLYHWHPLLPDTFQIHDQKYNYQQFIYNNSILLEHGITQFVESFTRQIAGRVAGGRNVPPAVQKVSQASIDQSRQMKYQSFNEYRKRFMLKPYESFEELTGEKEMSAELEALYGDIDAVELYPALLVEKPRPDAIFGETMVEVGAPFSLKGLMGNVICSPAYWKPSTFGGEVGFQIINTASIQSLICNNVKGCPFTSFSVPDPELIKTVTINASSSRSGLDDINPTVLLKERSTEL
Description: COX-2 activity in vitro (PGE2 ELISA, recombinant enzyme). Particulars: recombinant COX-2, arachidonic acid 10 μM. The class given is biochemical, human or murine. The method, then:
Evaluation of COX-1 and COX-2 activity in vitro
The COX-2 inhibition activity of the compounds of this invention illustrated in the Examples was determined by the following methods. a. Preparation of recombinant COX baculoviruses
(§1) Recombinant COX-1 and COX-2 were prepared as described by Gierse et al, [J. Biochem., 305, 479-84 (1995)]. A 2.0 kb fragment containing the coding region of either human or murine COX-1 or human or murine COX-2 was cloned into a BamH1 site of the baculovirus tra nsfer vector pVL1393 (Invitrogen) to generate the baculovirus transfer vectors for COX-1 and coX-2 in a manner similar to the method of D. R. O'Reilly et al (Baculovirus Expression Vectors: A Laboratory Manual (1992)). Recombinant baculoviruses were isolated by transfecting 4 μg of baculovirus transfer vector DNA into SF9 insect cells (2×10^8) along with 200 ng of linearized baculovirus plasmid DNA by the calcium phosphate method. See M. D. Summers and G. E. Smith, A Manual of Methods for Baculovirus Vectors and Insect Cell Culture Procedures, Texas Agric. Exp. Station Bull. 1555 (1987). Recombinant viruses were purified by three rounds of plaque purification and high titer (10^7-10^8 pfu/ml) stocks of virus were prepared. For large scale production, SF9 insect cells were infected in 10 liter fermentors (0.5×10^6/ml) with the recombinant baculovirus stock such that the multiplicity of infection was 0.1. After 72 hours the cells were centrifuged and the cell pellet homogenized in Tris/Sucrose (50 mM: 25%, pH 8.0) containing 1% 3-[(3-cholamidopropyl)dimethylammonio]-1-propanesulfonate (CHAPS). The homogenate was centrifuged at 10,000×G for 30 minutes, and the resultant supernatant was stored at −80° C. before being assayed for COX activity. […]
(§2) b. Assay for COX-1 and COX-2 activitv
COX activity was assayed as PGE2 formed/μg protein/time using an ELISA to detect the prostaglandin released. […] The PGE2 formed was measured by standard ELISA technology (Cayman Chemical).
(In general: In an ELISA, binding on a coated surface is turned into a signal by an enzyme label.)

The target in another data set is COX-1 (UniProt P23219). The data set is described as follows: COX-1 activity in vitro (PGE2 ELISA, recombinant enzyme). Particulars: recombinant COX-1, arachidonic acid 10 μM. The class given is biochemical, human or murine. The method, then: Evaluation of COX-1 and COX-2 activity in vitro a. Preparation of recombinant COX baculoviruses
as §1, §2
COX activity was assayed as PGE2 formed/μg protein/time using an ELISA to detect the prostaglandin released. CHAPS-solubilized insect cell membranes containing the appropriate COX enzyme were incubated in a potassium phosphate buffer (50 mM, pH 8.0) containing epinephrine, phenol, and heme with the addition of arachidonic acid (10 μM). […] The PGE2 formed was measured by standard ELISA technology (Cayman Chemical).

A further data set concerns the target T2, 5-lipoxygenase (5-LO) (Homo sapiens, UniProt P09917).
T2 construct: Leukotriene B4 (LTB4) production in human whole blood; from tissue; host or cells: human whole blood (healthy donors, heparinized)
T2 sequence (P09917 1-674): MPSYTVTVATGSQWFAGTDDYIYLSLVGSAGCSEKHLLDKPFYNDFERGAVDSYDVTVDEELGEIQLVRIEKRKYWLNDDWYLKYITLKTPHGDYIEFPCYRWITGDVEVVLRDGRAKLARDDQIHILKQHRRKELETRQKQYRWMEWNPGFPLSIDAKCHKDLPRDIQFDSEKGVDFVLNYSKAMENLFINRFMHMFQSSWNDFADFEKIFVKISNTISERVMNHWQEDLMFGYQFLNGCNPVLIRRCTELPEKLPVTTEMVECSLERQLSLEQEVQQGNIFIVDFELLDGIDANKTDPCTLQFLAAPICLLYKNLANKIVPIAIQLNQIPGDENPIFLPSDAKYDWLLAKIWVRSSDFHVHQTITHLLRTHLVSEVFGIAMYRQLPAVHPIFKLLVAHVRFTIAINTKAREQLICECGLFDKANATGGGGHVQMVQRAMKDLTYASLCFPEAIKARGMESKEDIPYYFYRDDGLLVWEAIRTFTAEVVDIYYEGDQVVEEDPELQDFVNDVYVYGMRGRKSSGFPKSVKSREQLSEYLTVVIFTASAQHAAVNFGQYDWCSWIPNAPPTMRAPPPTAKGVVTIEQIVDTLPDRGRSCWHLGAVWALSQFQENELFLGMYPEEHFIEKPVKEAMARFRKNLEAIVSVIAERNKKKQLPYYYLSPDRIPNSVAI
The data set is described as follows: 5-Lipoxygenase activity: calcium ionophore-induced LTB4 production in human whole blood. Particulars: A-23187 20 μg/ml, LTB4 by ELISA, mean IC50. The class given is cell-based. The method, then: Assay for 5-Lipoxygenase activity
The 5-lipoxygenase (5-LO) activity of the compounds were determined by the calcium ionophore-induced Leukotriene B4 (LTB4) production in human whole blood. Venous blood was collected from healthy human donors using heparin as an anti-coagulant. Human blood samples (0.2 ml of a 1:4 dilution in RPMI 1640 medium) were incubated in 96-well culture plates for 15 minutes at 37° C. with test compounds dissolved in ethanol (EtOH; final concentration <1%), or vehicle. Typically 7 concentrations of test compounds were examined in duplicate. A-23187 [Sigma] was added to the blood to a final concentration of 20 μg/ml, and the mixtures were incubated for 10 minutes at 37° C. The reaction was stopped by placing the samples on ice. The samples were then centrifuged at 800×g at 4° C. for 10 minutes to pellet the cells, and the supernatants were recovered for quantitation of LTB4 by ELISA (Cayman Chemical Co.; sensitivity 3 pg/ml). IC50's were estimated from a four parameter logistic model with two parameters fixed, the minimum (0% inhibition) and maximum (100% inhibition). The IC50 value is the concentration that produces 50% inhibition between the fixed values of the minimum and maximum. Data is reported as the mean IC50 for each compound.

The subject of a further data set is carrageenan foot edema. Description: Rat carrageenan foot pad edema test. The class given is in vivo. Particulars: male Sprague-Dawley rats, oral, 3 h after carrageenan. The method, then: Rat Carrageenan Foot Pad Edema Test
The carrageenan foot edema test was performed with materials, reagents and procedures essentially as described by Winter, et al., (Proc. Soc. Exp. Biol. Med., 111, 544 (1962)). Male Sprague-Dawley rats were selected in each group so that the average body weight was as close as possible. Rats were fasted with free access to water for over sixteen hours prior to the test. The rats were dosed orally (1 mL) with compounds suspended in vehicle containing 0.5% methylcellulose and 0.025% surfactant, or with vehicle alone. One hour later a subplantar injection of 0.1 mL of 1% solution of carrageenan/sterile 0.9% saline was administered and the volume of the injected foot was measured with a displacement plethysmometer connected to a pressure transducer with a digital indicator. Three hours after the injection of the carrageenan, the volume of the foot was again measured. The average foot swelling in a group of drug-treated animals was compared with that of a group of placebo-treated animals and the percentage inhibition of edema was determined (Otterness and Bliven, Laboratory Models for Testing NSAIDs, in Non-steroidal Anti-Inflammatory Drugs, (J. Lombardino, ed. 1985)).
On the technique in general: In the carrageenan paw model, swelling and tenderness develop within hours.

In turn, `NS(=O)(=O)c1ccc(-c2nc(CCCC(=O)NO)oc2-c2ccc(Cl)c(Cl)c2)cc1` [Example 4, 4-[(4-Aminosulfonyl)phenyl]-5-(3,4-dichlorophenyl)-N-hydroxy-2-oxazole-butanamide] had a melting point of 165 to 169.7 °C. In addition, the IC50 at COX-2 came out at 0.3 µM. The IC50 on COX-1 amounted to 12.5 µM.
Take `CN(O)C(=O)Cc1cc(-c2ccc(Cl)cc2)n(-c2ccc(S(N)(=O)=O)cc2)n1` [Example 3, [1-[4-(Aminosulfonyl)phenyl]-5-(4-chlorophenyl)-1H-pyrazol-3-yl]-N-hydroxy-N-methyl-ethanamide]: the melting point was 110 to 135 °C (dec.).
`NC(=O)N(O)Cc1cc(-c2ccc(Cl)cc2)n(-c2ccc(S(N)(=O)=O)cc2)n1` [Example 1, N′-[[1-[4-(Aminosulfonyl)phenyl]-5-(4-chlorophenyl)-1H-pyrazol-3-yl]methyl]-N′-hydroxyurea]: the IC50 at COX-2 turned out to be 6.6 µM; at COX-1, 53.5 µM; at 5-lipoxygenase (5-LO), 12.3 µM.
For the molecule `CN(O)C(=O)CCc1nc(-c2ccc(F)cc2)c(-c2ccc(S(C)(=O)=O)cc2)o1` [Example 2, 4-(4-Fluorophenyl)-N-hydroxy-N-methyl-5-[(4-methylsulfonyl)phenyl]-2-oxazolepropanamide], in the data set with carrageenan foot edema, the “RAT PAW EDEMA % Inhibition @ 10 mg/kg body weight” value is 2%. The IC50 was 5.1 µM at COX-2, over 100 µM at COX-1 and 0.05 µM at 5-lipoxygenase (5-LO).

By IC50 is commonly meant the concentration at which inhibition is half-maximal. A word on the melting point: it is the temperature, or range, at which the solid turns liquid.
